# Reference: ChEMBL document CHEMBL2434905, “2-Amino-6-chloro-3,4-dihydroquinazoline: A novel 5-HT3 receptor antagonist with antidepressant character” (Bioorg Med Chem Lett, 2013)
# The source made the active and inactive calls. The calls are words filed in the database; no cut-off is given here.
# Tested on: Mus musculus
# Experiment: Antidepressant activity in ICR mouse assessed as immobility time at 20 mg/kg, ip by tail suspension test
# Type: functional, organism-based
# Parameters: dose 20 mg/kg
row,SMILES,Activity
1,CN(C)CCCN1c2ccccc2CCc2ccccc21,Active
2,CNCCC(Oc1ccc(C(F)(F)F)cc1)c1ccccc1 (configuration not stated),Active
